From patent US20220168230A1, “NANOPARTICLE MEDIATED THERAPY” (Yale University, priority 2019, published 2022)

How the values were obtained:
[1] = in vivo; cited from earlier work
[2] = PET scan of ^11C-glyburide uptake in left and right brain hemispheres of MCAO rats; format: in vivo, rat; conditions: intravenous injection, FIG. 1B
MCAO mice = test: Therapeutic benefits in MCAO stroke mice (survival, TTC infarct volume, neurological score); format: in vivo; conditions: same amount of BA NPs and/or glyburide as in Gly-NPs, i.v. at 0, 24, 48 h, FIG. 6C, D
Excerpt: MCAO models were generated according to Cai, et al. Neurosci Lett 2015, 597, 127-31; Guo, et al. ACS nano 2018, 12 (8), 8723-8732; Han, et al. Nanomedicine 2016, 12 (7), 1833-42; Yu, et al. Advanced Materials 2018, 30, 1705383. Briefly, rats were anesthetized with 5% isoflurane (Aerrane, Baxter, Deerfield, Ill.) in 30% O2/70% N2O using a Tabletop Anesthesia system (Harvard Apparatus, USA). Isoflurane was then maintained at 1.5%. During the procedures, the body temperature of mice was maintained at 37.0±0.5° C. Regional cerebral blood flow (rCBF) was monitored using a laser Doppler flowmeter (AD Instruments Inc.) duration the course of surgery. […]
Mice were given treatment intravenously at 0, 24 and 48 h after surgery. Mice were monitored for survival for 10 days and were euthanized if one of the following criteria was met: (1) the mouse's body weight dropped below 15% of its initial weight, or (2) the mouse became lethargic or sick and unable to feed. […] Three days later, the score of each mouse was assessed by a standard behavioral test and were scored as follows: (1) normal motor function, (2) flexion of torso and contralateral forelimb when animal was lifted by the tail, (3) hemiparalysis resulting in circling to the contralateral side when held by tail on flat surface, but normal posture at rest, (4) leaning to the contralateral side at rest, and (5) no spontaneous motor activity. […]

[3] = in vivo; cited from earlier work; remark: listed apart in the source

In the case of `C[C@@H]1CC[C@H]2[C@@H](C)C(=O)O[C@@H]3O[C@@]4(C)CC[C@@H]1[C@]32OO4` [Artemisinin], the bioavailability [1] is listed as “less than 10%”.
In the case of `COc1ccc(Cl)cc1C(=O)NCCc1ccc(S(=O)(=O)NC(=O)NC2CCCCC2)cc1` [^11C-glyburide], the “^11C-glyburide uptake, ischemic versus contralateral hemisphere” value [2] is reported as “no significant difference”.
In the case of `COc1ccc(Cl)cc1C(=O)NCCc1ccc(S(=O)(=O)NC(=O)NC2CCCCC2)cc1` [glyburide], the “therapeutic benefits compared with Gly-NP treatment” value (MCAO mice) is given as “significantly less efficacy” and the “ability to penetrate the BBB” value [3] is given as “limited ability to penetrate the BBB”.
